This experiment has as its target ABCA4 (Bos taurus, UniProt F1MWM0). The format is biochemical.

Sequence of ABCA4 (F1MWM0 whole entry): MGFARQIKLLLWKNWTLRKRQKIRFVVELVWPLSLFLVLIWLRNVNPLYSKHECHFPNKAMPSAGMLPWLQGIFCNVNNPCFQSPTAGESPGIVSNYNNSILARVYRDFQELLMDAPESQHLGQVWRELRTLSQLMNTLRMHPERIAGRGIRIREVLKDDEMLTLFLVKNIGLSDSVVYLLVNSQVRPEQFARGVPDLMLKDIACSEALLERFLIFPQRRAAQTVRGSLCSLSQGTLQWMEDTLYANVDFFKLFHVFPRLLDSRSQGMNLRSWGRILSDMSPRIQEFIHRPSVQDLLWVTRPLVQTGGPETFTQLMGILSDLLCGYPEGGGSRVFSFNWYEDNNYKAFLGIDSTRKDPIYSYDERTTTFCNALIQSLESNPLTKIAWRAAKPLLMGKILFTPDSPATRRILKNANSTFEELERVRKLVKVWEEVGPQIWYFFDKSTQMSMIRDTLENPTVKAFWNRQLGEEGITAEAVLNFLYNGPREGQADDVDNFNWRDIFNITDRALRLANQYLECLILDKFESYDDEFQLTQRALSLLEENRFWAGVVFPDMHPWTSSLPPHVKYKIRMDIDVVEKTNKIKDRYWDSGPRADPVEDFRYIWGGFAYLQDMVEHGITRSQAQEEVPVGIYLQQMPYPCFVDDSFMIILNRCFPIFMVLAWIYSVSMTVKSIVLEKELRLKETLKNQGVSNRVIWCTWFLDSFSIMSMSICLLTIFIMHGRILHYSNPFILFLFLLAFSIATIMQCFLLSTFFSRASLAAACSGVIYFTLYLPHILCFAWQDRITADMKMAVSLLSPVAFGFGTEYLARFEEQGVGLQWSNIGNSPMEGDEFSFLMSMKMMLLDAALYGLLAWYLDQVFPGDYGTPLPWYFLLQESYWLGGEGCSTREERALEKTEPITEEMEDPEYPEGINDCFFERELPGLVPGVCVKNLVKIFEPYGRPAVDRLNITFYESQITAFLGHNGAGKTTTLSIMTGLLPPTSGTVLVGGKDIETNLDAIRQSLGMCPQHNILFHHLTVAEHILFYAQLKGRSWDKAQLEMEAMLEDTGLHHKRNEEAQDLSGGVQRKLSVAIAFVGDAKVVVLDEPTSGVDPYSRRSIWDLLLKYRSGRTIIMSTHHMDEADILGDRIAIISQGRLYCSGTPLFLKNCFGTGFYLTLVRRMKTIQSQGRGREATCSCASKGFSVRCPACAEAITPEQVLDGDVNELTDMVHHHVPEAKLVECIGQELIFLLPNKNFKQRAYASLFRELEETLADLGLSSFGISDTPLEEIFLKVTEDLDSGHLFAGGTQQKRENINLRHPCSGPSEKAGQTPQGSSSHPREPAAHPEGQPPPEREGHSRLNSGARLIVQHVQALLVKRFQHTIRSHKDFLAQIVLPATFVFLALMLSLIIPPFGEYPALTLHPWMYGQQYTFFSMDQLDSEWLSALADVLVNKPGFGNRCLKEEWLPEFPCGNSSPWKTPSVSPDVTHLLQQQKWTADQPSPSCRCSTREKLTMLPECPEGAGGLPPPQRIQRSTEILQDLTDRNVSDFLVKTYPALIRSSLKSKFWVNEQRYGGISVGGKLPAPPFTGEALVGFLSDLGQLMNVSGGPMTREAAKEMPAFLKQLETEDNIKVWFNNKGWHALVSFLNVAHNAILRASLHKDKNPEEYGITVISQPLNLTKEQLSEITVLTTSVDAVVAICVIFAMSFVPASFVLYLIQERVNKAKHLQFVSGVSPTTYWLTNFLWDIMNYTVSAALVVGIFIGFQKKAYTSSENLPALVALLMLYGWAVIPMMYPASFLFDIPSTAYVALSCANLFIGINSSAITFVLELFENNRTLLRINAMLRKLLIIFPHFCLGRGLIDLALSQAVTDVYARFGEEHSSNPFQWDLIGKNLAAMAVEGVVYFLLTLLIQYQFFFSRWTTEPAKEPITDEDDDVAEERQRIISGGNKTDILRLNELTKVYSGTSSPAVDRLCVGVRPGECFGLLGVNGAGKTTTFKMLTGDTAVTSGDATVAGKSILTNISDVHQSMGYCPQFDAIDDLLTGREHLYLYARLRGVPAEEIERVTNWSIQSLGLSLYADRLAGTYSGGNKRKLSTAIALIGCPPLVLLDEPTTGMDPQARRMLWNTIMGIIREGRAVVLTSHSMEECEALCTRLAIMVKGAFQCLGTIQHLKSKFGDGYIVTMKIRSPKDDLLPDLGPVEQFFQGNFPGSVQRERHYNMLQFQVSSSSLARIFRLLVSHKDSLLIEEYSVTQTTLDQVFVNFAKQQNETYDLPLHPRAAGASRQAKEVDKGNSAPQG

On to N-retinyl-PE, for which it took 9 µM to reach half-maximal inhibition (IC50).

The IC50 is the point on the concentration scale where inhibition reaches its midpoint. A high value points to lower potency.
